Measured values from ChEMBL document CHEMBL1158642, “Syntheses and biological evaluation of ring-C modified colchicine analogs” (Bioorg Med Chem Lett, 2010).
Calls of active or inactive are those of the source. No cut-off for these calls is given here.

How the values were obtained:
PC-3 = experiment: Cytotoxicity against human PC3 cells after 72 hrs by crystal violet staining; format: functional, cell-based; conditions: PC-3, 72 h
[1] = Inhibition of microtubule polymerization at 10 uM after 10 mins
MCF7 = experiment: Cytotoxicity against human MCF7 cells after 72 hrs by crystal violet staining; format: functional, cell-based; conditions: MCF7, 72 h

| SMILES | IC50 (PC-3) [nM] | Activity [1] | IC50 (MCF7) [nM] |
| --- | --- | --- | --- |
| COC1=C[C@H]2C3=C([C@@H](ON2c2cc(C)on2)C1=O)[C@@H](NC(C)=O)CCc1cc(OC)c(OC)c(OC)c13 | 250 | Active | 190 |
| COC1=C[C@H]2C3=C([C@@H](ON2c2cc(C)ccn2)C1=O)[C@@H](NC(C)=O)CCc1cc(OC)c(OC)c(OC)c13 | 14 | – | 10 |
| COc1cc2c(c(OC)c1OC)-c1ccc(OC)c(=O)cc1[C@@H](NC(C)=O)CC2 [COLCHICINE] | 20 | Active | – |
| COC1=C[C@@H]2ON(c3cnoc3C)[C@@H](C1=O)C1=C2c2c(cc(OC)c(OC)c2OC)CC[C@@H]1NC(C)=O | 245 | inactive | 250 |
| COC1=C[C@H]2C3=C([C@@H](ON2c2cccc(C)n2)C1=O)[C@@H](NC(C)=O)CCc1cc(OC)c(OC)c(OC)c13 | 25 | Active | 20 |
| CCc1cccc(N2O[C@H]3C(=O)C(OC)=C[C@H]2C2=C3[C@@H](NC(C)=O)CCc3cc(OC)c(OC)c(OC)c32)n1 | 23 | – | 22 |
| COC1=C[C@H]2C3=C([C@@H](ON2c2ccccn2)C1=O)[C@@H](NC(C)=O)CCc1cc(OC)c(OC)c(OC)c13 | 28 | Active | 17 |
